Results published in patent US12116344B2, “Crystalline forms of a pharmaceutical compound” (Azafaros B.V., priority 2020, dated 2024).
Values after ≈ are worked out from the molar mass of the structure shown. Where two headings read alike, the source gives them in different places.

How the values were obtained:
Format in all cases: physicochemical
[1] = Approximate solubility by incremental solvent addition with shaking/sonication; details: for solubility: thermodynamic from solid, about 25° C., approximate, read-out: Solubility S
Protocol: Approximate solubilities were determined by incremental addition of solvent to about 10 mg the compound and subsequent shaking and/or sonication for a short period of time. If the substance was not dissolved by addition of a total of at least 10 ml solvent, the solubility is indicated as <1 mg/ml. The experiments were conducted at about 25° C.
Compound (I) was purified using a silica gel column to remove borate esters followed by a short equilibration in acetonitrile (about 1-5 min). Solubility of purified compound (I) in acetonitrile was determined to be between 5 mg/mL and 8 mg/mL. These values were determined by adding small aliquots of solvent to −10 mg of solid compound (I) and shaking/sonicating for a short period of time at room temperature (about 25° C.).

[2] = Dynamic vapour sorption (DVS), hygroscopicity
Protocol: Dynamic vapour sorption (DVS) measurements were performed with an SPS11-100n “Sorptions Prüfsystem” from ProUmid (formerly “Projekt Messtechnik”), August-Nagel-Str. 23, 89079 Ulm (Germany). About 5 mg to 20 mg of sample was put into an aluminum sample pan. Humidity change rates of 5% per hour were used. The applied measurement program can be described as follows:
The sample was placed on an aluminium or platinum holder on top of a microbalance and allowed to equilibrate at a relative humidity (RH) of 50% before starting the pre-defined humidity programs: • (1) 2 h at 50% RH • (2) 50→0% RH (5%/h); 5 h at 0% RH • (3) 0→95% RH (5%/h); 5 h at 95% RH • (4) 95→0% RH (5%/h); 5 h at 0% RH • (5) 0→95% RH (5%/h); 5 h at 95% RH • (6) 95→50% RH (5%/h); 2 h at 50% RH

[3] = Stability of the crystalline form (transition of Form 2 into Form 3); details: Form 2 transitions into Form 3 above around 30° C. in about 1-5 min, or in solvent for more than 5 min at around 25° C.
Protocol: Alternatively, Form 2 transitioned into Form 3 upon equilibration in solvent (e.g. acetone) for more than 5 min at around 25° C.

Solubility in water ([1]; Form 2 crystalline form, summary Table 3) [mg/mL]	Hygroscopicity (description) [2]	Stability of the crystalline form [3]	solubility ([1]; organic solvent or mixture, 1-Propanol) [mg/mL]	solubility ([1]; organic solvent or mixture, 2-Propanol) [mg/mL]	solubility ([1]; organic solvent or mixture, Acetic acid) [mg/mL]	solubility ([1]; organic solvent or mixture, Acetone) [mg/mL]	solubility ([1]; organic solvent or mixture, Acetonitrile) [mg/mL]	solubility ([1]; organic solvent or mixture, DCM) [mg/mL]	solubility ([1]; organic solvent or mixture, Ethanol) [mg/mL]	solubility ([1]; organic solvent or mixture, Ethyl acetate) [mg/mL]	solubility ([1]; organic solvent or mixture, MEK) [mg/mL]	solubility ([1]; organic solvent or mixture, Methanol) [mg/mL]	solubility ([1]; organic solvent or mixture, THF) [mg/mL]	solubility ([1]; Water) [mg/mL]	SMILES
~80 (≈ 185 mM)	hygroscopic	low stability													OC[C@H]1[C@@H](O)[C@H](O)[C@@H](O)CN1CCCCCOCc1ccc(-c2ccccc2)c(F)c1 [Form 2]
			13 to 15 (≈ 30 to 34.6 mM)	19 to 20 (≈ 43.8 to 46.1 mM)	> 120	55 to 73 (≈ 127 to 168 mM)	5 to 8 (≈ 11.5 to 18.5 mM)	> 160	40 to 53 (≈ 92.3 to 122 mM)	12 to 13 (≈ 27.7 to 30 mM)	40 to 50 (≈ 92.3 to 115 mM)	> 160	> 200	~80 (≈ 185 mM)	OC[C@H]1[C@@H](O)[C@H](O)[C@@H](O)CN1CCCCCOCc1ccc(-c2ccccc2)c(F)c1 [compound (I)]
